Legend:
Test in all cases: NCI one-dose SRB growth inhibition
Assay type in all cases: cell-based
[1] = test system: 786-0; details: Homo sapiens, Renal Cancer, 48 h, read-out: GI% 786-0
Procedure, shortened: (§1)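 NCI DTP screen; 48 h drug exposure; SRB read-out of cell growth/viability; nine-tumour-type panel.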

[2] = test system: CCRF-CEM; details: Homo sapiens, Leukemia, 48 h, read-out: GI% CCRF-CEM
Procedure, shortened: as §1

[3] = test system: COLO 205; details: Homo sapiens, Colon Cancer, 48 h, read-out: GI% COLO 205
Procedure, shortened: as §1

[4] = test system: DU-145; details: Homo sapiens, Prostate, 48 h, read-out: GI% DU-145
Procedure, shortened: as §1

[5] = test system: HL-60(TB); details: Homo sapiens, Leukemia, 48 h, read-out: GI% HL-60(TB)
Procedure, shortened: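 Run under the NCI Developmental Therapeutics Program protocol at a single dose, with 48 h drug exposure. Growth and viability read by sulforhodamine B staining.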

[6] = test system: HOP-62; details: Homo sapiens, Non-Small Cell Lung Cancer, 48 h, read-out: GI% HOP-62
Procedure, shortened: as §1

[7] = test system: HOP-92; details: Homo sapiens, Non-Small Cell Lung Cancer, 48 h, read-out: GI% HOP-92
Procedure, shortened: as §1

[8] = test system: HS 578T; details: Homo sapiens, Breast Cancer, 48 h, read-out: GI% HS 578T
Procedure, shortened: as §1

[9] = test system: IGROV1; details: Homo sapiens, IGROV-1, Ovarian Cancer, 48 h, read-out: GI% IGROV1
Procedure, shortened: as §1

[10] = test system: KM12; details: Homo sapiens, Colon Cancer, 48 h, read-out: GI% KM12
Procedure, shortened: as §1

[11] = test system: M14; details: Homo sapiens, M14, 48 h, Melanoma, read-out: GI% M14
Procedure, shortened: as §1

[12] = test system: MALME-3M; details: Homo sapiens, Melanoma, 48 h, read-out: GI% MALME-3M
Procedure, shortened: as §1

[13] = test system: MCF7; details: Homo sapiens, Breast Cancer, 48 h, read-out: GI% MCF7
Procedure, shortened: as §1

[14] = test system: MDA-MB-435; details: Homo sapiens, Melanoma, 48 h, read-out: GI% MDA-MB-435
Procedure, shortened: as §1

[15] = test system: MDA-MB-468; details: Homo sapiens, Breast Cancer, 48 h, read-out: GI% MDA-MB-468
Procedure, shortened: as §1

[16] = test system: MOLT-4; details: Homo sapiens, Leukemia, 48 h, read-out: GI% MOLT-4
Procedure, shortened: as §1

[17] = test system: NCI-H460; details: Homo sapiens, Non-Small Cell Lung Cancer, 48 h, read-out: GI% NCI-H460
Procedure, shortened: as §1

[18] = test system: OVCAR-3; details: Homo sapiens, OVCAR-3, 48 h, Ovarian Cancer, read-out: GI% OVCAR-3
Procedure, shortened: as §1

[19] = test system: OVCAR-4; details: Homo sapiens, Ovarian Cancer, 48 h, read-out: GI% OVCAR-4
Procedure, shortened: as §1

[20] = test system: OVCAR-5; details: Homo sapiens, Ovarian Cancer, 48 h, read-out: GI% OVCAR-5
Procedure, shortened: as §1

[21] = test system: PC-3; details: Homo sapiens, PC-3, 48 h, Prostate, read-out: GI% PC-3
Procedure, shortened: as §1

[22] = test system: RPMI-8226; details: Homo sapiens, RPMI-8226, 48 h, Leukemia, read-out: GI% RPMI-8226
Procedure, shortened: as §1

[23] = test system: RXF 393; details: Homo sapiens, Renal Cancer, 48 h, read-out: GI% RXF 393
Procedure, shortened: as §1

[24] = test system: SF-268; details: Homo sapiens, CNS Cancer, 48 h, read-out: GI% SF-268
Procedure, shortened: as §1

[25] = test system: SF-295; details: Homo sapiens, CNS Cancer, 48 h, read-out: GI% SF-295
Procedure, shortened: as §1

[26] = test system: SK-MEL-28; details: Homo sapiens, Melanoma, 48 h, read-out: GI% SK-MEL-28
Procedure, shortened: as §1

[27] = test system: SK-MEL-2; details: Homo sapiens, Melanoma, 48 h, read-out: GI% SK-MEL-2
Procedure, shortened: as §1

[28] = test system: SK-OV-3; details: Homo sapiens, Ovarian Cancer, 48 h, read-out: GI% SK-OV-3
Procedure, shortened: as §1

[29] = test system: SW-620; details: Homo sapiens, Colon Cancer, 48 h, read-out: GI% SW-620
Procedure, shortened: as §1

[30] = test system: T-47D; details: Homo sapiens, T47D, 48 h, Breast Cancer, read-out: GI% T-47D
Procedure, shortened: as §1

[31] = test system: TK-10; details: Homo sapiens, Renal Cancer, 48 h, read-out: GI% TK-10
Procedure, shortened: as §1

[32] = test system: UACC-257; details: Homo sapiens, UACC-257, read-out: GI% UACC-257, Melanoma, 48 h
Procedure, shortened: as §1

[33] = test system: UO-31; details: Homo sapiens, Renal Cancer, 48 h, read-out: GI% UO-31
Procedure, shortened: as §1

Row | SMILES | inhibition at 10 µM [1] | inhibition at 10 µM [2] | inhibition at 10 µM [3] | inhibition at 10 µM [4] | inhibition at 10 µM [5] | inhibition at 10 µM [6] | inhibition at 10 µM [7] | inhibition at 10 µM [8] | inhibition at 10 µM [9] | inhibition at 10 µM [10] | inhibition at 10 µM [11] | inhibition at 10 µM [12] | inhibition at 10 µM [13] | inhibition at 10 µM [14] | inhibition at 10 µM [15] | inhibition at 10 µM [16] | inhibition at 10 µM [17] | inhibition at 10 µM [18] | inhibition at 10 µM [19] | inhibition at 10 µM [20] | further results
1 | COc1ccc(NC(=O)Nc2ccc(-c3ccc(Cl)cc3)nc2C)cc1 [Compound 5f, 1-(6-(4-Chlorophenyl)-2-methylpyridin-3-yl)-3-(4-methoxyphenyl) urea] | < 10% | 18% | < 10% | < 10% | 12% | < 10% | < 10% | < 10% | < 10% | < 10% | 38% | < 10% | 23% | < 10% | < 10% | 14% | < 10% | < 10% | < 10% | < 10% | inhibition at 10 µM [21]: < 10%; inhibition at 10 µM [22]: 14%; inhibition at 10 µM [23]: 21%; inhibition at 10 µM [24]: < 10%; inhibition at 10 µM [25]: < 10%; inhibition at 10 µM [26]: 13%; inhibition at 10 µM [27]: < 10%; inhibition at 10 µM [28]: < 10%; inhibition at 10 µM [29]: < 10%; inhibition at 10 µM [30]: < 10%; inhibition at 10 µM [31]: < 10%; inhibition at 10 µM [32]: 26%; inhibition at 10 µM [33]: < 10%
2 | Cc1nc(-c2ccc(Cl)cc2)ccc1NC(=O)Nc1ccc2c(c1)OCO2 [Compound 5g, 1-(Benzo[d][1,3]dioxol-5-yl)-3-(6-(4-chlorophenyl)-2-methylpyridin-3-yl)urea] | < 10% | < 10% | < 10% | < 10% | 24% | < 10% | < 10% | < 10% | < 10% | < 10% | 29% | < 10% | < 10% | < 10% | < 10% | 18% | < 10% | < 10% | < 10% | < 10% | inhibition at 10 µM [21]: < 10%; inhibition at 10 µM [22]: < 10%; inhibition at 10 µM [23]: < 10%; inhibition at 10 µM [24]: < 10%; inhibition at 10 µM [25]: < 10%; inhibition at 10 µM [26]: < 10%; inhibition at 10 µM [27]: < 10%; inhibition at 10 µM [28]: < 10%; inhibition at 10 µM [29]: < 10%; inhibition at 10 µM [30]: < 10%; inhibition at 10 µM [31]: < 10%; inhibition at 10 µM [32]: 25%; inhibition at 10 µM [33]: < 10%
3 | Cc1nc(-c2ccc(F)cc2)ccc1NC(=O)Nc1ccc2c(c1)OCO2 [Compound 5d, 1-(Benzo[d][1, 3]dioxol-5-yl)-3-(6-(4-fluorophenyl)-2-methylpyridin-3-yl)urea] | < 10% | < 10% | < 10% | < 10% | < 10% | < 10% | < 10% | < 10% | < 10% | 11% | 37% | < 10% | < 10% | < 10% | < 10% | < 10% | < 10% | < 10% | < 10% | < 10% | inhibition at 10 µM [21]: < 10%; inhibition at 10 µM [22]: < 10%; inhibition at 10 µM [23]: < 10%; inhibition at 10 µM [24]: < 10%; inhibition at 10 µM [25]: < 10%; inhibition at 10 µM [26]: < 10%; inhibition at 10 µM [27]: < 10%; inhibition at 10 µM [28]: < 10%; inhibition at 10 µM [29]: < 10%; inhibition at 10 µM [30]: < 10%; inhibition at 10 µM [31]: < 10%; inhibition at 10 µM [32]: 15%; inhibition at 10 µM [33]: < 10%
4 | CCOC(=O)c1ccc(NC(=O)Nc2ccc(-c3ccc(F)cc3)nc2C)cc1 [Compound 5c, Ethyl 4-(3-(6-(4-fluorophenyl)-2-methylpyridin-3-yl)ureido)benzoate] | < 10% | < 10% | < 10% | < 10% | 13% | < 10% | < 10% | < 10% | < 10% | < 10% | 38% | < 10% | 20% | < 10% | < 10% | < 10% | < 10% | < 10% | < 10% | < 10% | inhibition at 10 µM [21]: < 10%; inhibition at 10 µM [22]: 13%; inhibition at 10 µM [23]: < 10%; inhibition at 10 µM [24]: < 10%; inhibition at 10 µM [25]: < 10%; inhibition at 10 µM [26]: < 10%; inhibition at 10 µM [27]: < 10%; inhibition at 10 µM [28]: < 10%; inhibition at 10 µM [29]: < 10%; inhibition at 10 µM [30]: < 10%; inhibition at 10 µM [31]: < 10%; inhibition at 10 µM [32]: 29%; inhibition at 10 µM [33]: < 10%

Reference: publication PMC6366416, “Synthesis and in vitro anticancer activity of certain novel 1-(2-methyl-6-arylpyridin-3-yl)-3-phenylureas as apoptosis-inducing agents” (Journal of Enzyme Inhibition and Medicinal Chemistry, 2019)
